According to patent publication EP3020398A1, “Compounds and formulations for reducing scarring” (NITTO DENKO CORPORATION, priority 2014, dated 2016):

Tests used:
[1] = test system: full-thickness skin wounds; assay: Scar index analysis (H&E histology) in mouse excisional wound model; assay type: in vivo, Mice; conditions: for scar index: topical, 5 daily treatments, harvest after 14 days
Method: The mouse model used here can be considered one of the simplest and standard murine models for investigating scar formation and wound healing.
Mice were weighed and then anaesthetized with 5% isoflurane in air for induction and then administered 2.5-3% of isoflurane in air for the remainder of the procedure. The animals were administered Tramal (Tramadol) intraperitoneally for analgesia at a 0.1 mg/kg dose. Before surgery the back of the mice was shaved and disinfected with isobetadine soap, rinsed with water and then swabbed with iodium alcohol.
Four full-thickness skin wounds were performed by cutting the folded skin on the back of the mice with a 7.5 mm x 3 mm elliptical biopsy punch (Elliptical Excisional Instrument, Acuderm Inc.). The skin on the back was raised and folded at the level of the vertebral column by using the thumb and the index finger. The folded skin was then placed on a wood tongue depressor with the animal laying on one side and two wounds were performed through the folded skin by using an elliptical biopsy punch (Elliptical Excisional Instrument, Acuderm Inc.), resulting in four wounds on the back skin: two on the right of the vertebral column and two on the left (Figure 1). The epidermis, the dermis and the fat tissue in the wound was carefully removed without touching other tissues. The wounds were then immediately treated with topical application of Composition 1 (Tv - vehicle), Composition 2 (T1 - 1 µM Lipoxin A4), or Composition 3 (T2 - 100 µM Lipoxin A4). The position of the wounds that were treated with active agent (T1 or T2) or treated with vehicle (Tv) was randomised. The wound site was then covered with OP-Film (Somed International, the Netherlands). The borders were then fixed with cyanoacrylate glue (Loctite).
The mice were allowed to recover from the surgical preparation in a clean cage with fresh bedding and under a heating lamp. To avoid possible contamination the mice were placed in individual cages containing a cellulose bed that was changed every 24 hours. Single caging avoids other mice from detaching the adhesive patches.
The treatment was repeated at the day 1, 2, 3 and 4 post-surgery for a total of 5 treatments in the first 5 days of healing. At each time point the mice were briefly anaesthetized with isoflurane and a new dose of ointment was injected through the film onto the wound, after which the animal was left to recover. At day 5 all films were removed.
After 14 days the mice were sacrificed under isoflurane anaesthesia by cervical dislocation to harvest the regenerated tissue. Skin samples were taken. The back of the mouse was carefully shaved paying careful attention to not touch the wound area. […]
The extent of scarring was measured in accordance with the procedure set out by Khorasani et al. (2011). […]

[2] = test system: full-thickness skin wounds; assay: Collagen content and organisation (picrosirius red, bright-field and polarised light image analysis) in mouse excisional wound model; assay type: in vivo, Mice; conditions: wounds treated versus vehicle; Fig. 5
Method: Four full-thickness skin wounds were performed by cutting the folded skin on the back of the mice with a 7.5 mm x 3 mm elliptical biopsy punch (Elliptical Excisional Instrument, Acuderm Inc.). The skin on the back was raised and folded at the level of the vertebral column by using the thumb and the index finger. The folded skin was then placed on a wood tongue depressor with the animal laying on one side and two wounds were performed through the folded skin by using an elliptical biopsy punch (Elliptical Excisional Instrument, Acuderm Inc.), resulting in four wounds on the back skin: two on the right of the vertebral column and two on the left (Figure 1). […]
Collagen content and organisation were assessed as published by De Visscher et al. (2007, 2008). […] From this the collagen content and organisation can be measured according to the following method.
The total area (At) of the region of interest (ROI) and the area of the red stained material within that area (Ar) on the bright-field image. On the polarized light image, the area of the red illuminated bundles (Ab) is measured. The collagen density and organized collagen are calculated by the following formulae: Collagen density: (Ar/At) × 100 [formula] […]
Both are expressed as a percentage: collagen density as a percentage of the total area and organized collagen as a percentage of the collagen area.

With `CCCCC[C@H](O)/C=C/C=C\C=C\C=C\[C@@H](O)[C@@H](O)CCCC(=O)O` [Lipoxin A4] as the molecule, how does the scar index ([1]; 1 µM Lipoxin A4 treatment, Figure 4) read?
The scar index was 905 µm.

And the scar index ([1]; 100 µM Lipoxin A4 treatment, Figure 4)?
Its scar index is 511 µm.

What about the “lower scarring than wounds treated with Control (quantitative scar index analysis)” value ([1]; Figure 3, n=5, p<0.008) of the same molecule?
The value was 49%.

And the scar index ([1]; Pooled Lipoxin A4 treatment, Figure 3, p=0.008 vs vehicle (Vehicle 1478 ± 334))?
The scar index was 748 µm.

What about the “Collagen content (in words, versus vehicle)” value [2] of the same molecule?
The value was “Lower collagen content was observed in wounds treated with vehicle”.

What about the “Collagen organisation (in words, versus vehicle)” value [2] of the same molecule?
The value was “increased values”.
